Reference: ChEMBL document CHEMBL4699491, “Identification of TNO155, an Allosteric SHP2 Inhibitor for the Treatment of Cancer” (J Med Chem, 2020)
≈ marks a conversion by molar mass, not a printed value.

Key:
[1] = Cmax/dose in beagle dog at 1 mg/kg, po by LC-MS/MS analysis; assay type: ADME, organism-based, Canis lupus familiaris; details: in vivo
[2] = Cmax/dose in cynomolgus monkey at 1 mg/kg, po by LC-MS/MS analysis; assay type: ADME, organism-based, Macaca fascicularis; details: in vivo
[3] = Clearance in beagle dog at 0.2 mg/kg, iv by LC-MS/MS analysis; assay type: ADME, organism-based, Canis lupus familiaris; details: in vivo
[4] = Protein binding in Sprague-Dawley rat plasma; assay type: ADME, cell-free; details: read-out: PPB (converted)
[5] = Protein binding in C57BL/6 mouse plasma; assay type: ADME, cell-free; details: read-out: PPB (converted)
[6] = molecular target: Cytochrome P450 3A4 (Homo sapiens, UniProt P08684); test: Inhibition of CYP3A4 (unknown origin); assay type: ADME
Cytochrome P450 3A4, sequence (P08684 whole entry): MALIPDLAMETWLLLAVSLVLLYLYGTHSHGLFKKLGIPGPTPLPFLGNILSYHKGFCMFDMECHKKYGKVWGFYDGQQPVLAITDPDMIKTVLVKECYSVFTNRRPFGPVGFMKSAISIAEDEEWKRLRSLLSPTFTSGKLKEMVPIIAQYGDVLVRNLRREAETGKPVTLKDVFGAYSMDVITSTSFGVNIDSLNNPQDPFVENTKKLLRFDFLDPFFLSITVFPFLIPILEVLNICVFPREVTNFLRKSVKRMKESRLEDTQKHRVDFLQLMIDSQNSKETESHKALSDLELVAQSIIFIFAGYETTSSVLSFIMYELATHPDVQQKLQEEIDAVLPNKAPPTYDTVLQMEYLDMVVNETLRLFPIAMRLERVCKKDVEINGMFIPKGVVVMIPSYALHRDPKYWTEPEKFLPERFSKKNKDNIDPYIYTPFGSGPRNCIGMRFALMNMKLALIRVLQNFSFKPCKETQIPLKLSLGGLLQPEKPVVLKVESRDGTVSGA

[7] = Oral bioavailability in cynomolgus monkey at 1 mg/kg by LC-MS/MS analysis; assay type: ADME, organism-based, Macaca fascicularis; details: in vivo
[8] = Tmax in C57BL/6 mouse at 5 mg/kg, po by LC-MS/MS analysis; assay type: ADME, organism-based; details: in vivo
[9] = AUC/dose in cynomolgus monkey at 0.3 mg/kg, iv by LC-MS/MS analysis; assay type: ADME, organism-based, Macaca fascicularis; details: in vivo
[10] = molecular target: Cytochrome P450 2C9 (Homo sapiens, UniProt P11712); test: Inhibition of CYP2C9 (unknown origin); assay type: ADME
Cytochrome P450 2C9, sequence (P11712 whole entry): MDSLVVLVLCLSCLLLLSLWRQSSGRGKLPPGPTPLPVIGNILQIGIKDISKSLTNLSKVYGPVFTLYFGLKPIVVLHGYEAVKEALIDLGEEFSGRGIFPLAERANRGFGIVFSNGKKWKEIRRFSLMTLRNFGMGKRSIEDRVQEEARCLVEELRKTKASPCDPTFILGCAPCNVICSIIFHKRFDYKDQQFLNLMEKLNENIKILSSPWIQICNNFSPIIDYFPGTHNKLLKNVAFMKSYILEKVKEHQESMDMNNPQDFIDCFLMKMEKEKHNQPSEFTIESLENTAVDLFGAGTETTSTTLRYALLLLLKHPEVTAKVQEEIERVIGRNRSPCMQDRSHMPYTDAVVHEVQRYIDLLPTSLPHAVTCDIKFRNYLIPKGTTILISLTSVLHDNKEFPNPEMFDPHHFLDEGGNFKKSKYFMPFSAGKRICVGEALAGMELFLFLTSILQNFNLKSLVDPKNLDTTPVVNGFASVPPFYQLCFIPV

[11] = AUC/dose in beagle dog at 1 mg/kg, po by LC-MS/MS analysis; assay type: ADME, organism-based, Canis lupus familiaris; details: in vivo
[12] = AUC/dose in C57BL/6 mouse at 5 mg/kg, po by LC-MS/MS analysis; assay type: ADME, organism-based; details: in vivo
[13] = Toxicity in mouse 3T3 cells under irradiation by NRU phototoxicity test; assay type: cell-based
[14] = molecular target: Cytochrome P450 2D6 (Homo sapiens, UniProt P10635); test: Inhibition of CYP2D6 (unknown origin); assay type: ADME
Cytochrome P450 2D6, sequence (P10635 whole entry): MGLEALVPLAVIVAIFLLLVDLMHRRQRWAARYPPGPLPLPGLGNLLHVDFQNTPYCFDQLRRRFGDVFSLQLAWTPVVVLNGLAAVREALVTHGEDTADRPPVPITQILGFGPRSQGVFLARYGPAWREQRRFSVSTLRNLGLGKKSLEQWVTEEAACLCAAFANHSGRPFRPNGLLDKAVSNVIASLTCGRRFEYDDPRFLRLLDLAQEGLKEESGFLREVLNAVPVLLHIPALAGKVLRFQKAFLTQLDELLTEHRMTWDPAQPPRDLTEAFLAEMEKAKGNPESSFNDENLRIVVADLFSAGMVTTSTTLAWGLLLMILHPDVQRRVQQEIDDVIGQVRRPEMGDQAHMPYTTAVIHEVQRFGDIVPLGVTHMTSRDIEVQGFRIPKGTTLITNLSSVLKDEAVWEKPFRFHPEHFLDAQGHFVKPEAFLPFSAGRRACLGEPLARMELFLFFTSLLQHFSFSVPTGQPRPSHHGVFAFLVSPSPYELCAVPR

[15] = AUC/dose in cynomolgus monkey at 1 mg/kg, po by LC-MS/MS analysis; assay type: ADME, organism-based, Macaca fascicularis; details: in vivo
[16] = physchem; details: octanol/water
Description: Distribution coefficient, logD of the compound

[17] = Protein binding in cynomolgus monkey plasma; assay type: ADME, cell-free, Macaca fascicularis; details: read-out: PPB (converted)
[18] = Toxicity in NU/NU mouse xenografted with human KYSE-520 cells assessed as induction of body weight loss eat 2.5 to 20 mg/kg, po BID for 2 weeks; assay type: organism-based; details: in vivo, 336 h, dose 2.5-20 mg/kg
[19] = AUC/dose in Sprague-Dawley rat at 5 mg/kg, po by LC-MS/MS analysis; assay type: ADME, organism-based; details: in vivo
[20] = Cmax/dose in Sprague-Dawley rat at 5 mg/kg, po by LC-MS/MS analysis; assay type: ADME, organism-based; details: in vivo
[21] = Volume of distribution at steady state in cynomolgus monkey at 0.3 mg/kg, iv by LC-MS/MS analysis; assay type: ADME, organism-based, Macaca fascicularis; details: in vivo, read-out: Vdss
[22] = Tmax in beagle dog at 1 mg/kg, po by LC-MS/MS analysis; assay type: ADME, organism-based, Canis lupus familiaris; details: in vivo
[23] = Oral bioavailability in Sprague-Dawley rat at 5 mg/kg by LC-MS/MS analysis; assay type: ADME, organism-based; details: in vivo
[24] = Protein binding in beagle dog plasma; assay type: ADME, cell-free, Canis lupus familiaris; details: read-out: PPB (converted)
[25] = Volume of distribution at steady state in C57BL/6 mouse at 1 mg/kg, iv by LC-MS/MS analysis; assay type: ADME, organism-based; details: in vivo, read-out: Vdss
[26] = Tmax in Sprague-Dawley rat at 5 mg/kg, po by LC-MS/MS analysis; assay type: ADME, organism-based; details: in vivo
[27] = molecular target: Voltage-gated inwardly rectifying potassium channel KCNH2 (Homo sapiens, UniProt Q12809)
Voltage-gated inwardly rectifying potassium channel KCNH2, sequence (Q12809 whole entry): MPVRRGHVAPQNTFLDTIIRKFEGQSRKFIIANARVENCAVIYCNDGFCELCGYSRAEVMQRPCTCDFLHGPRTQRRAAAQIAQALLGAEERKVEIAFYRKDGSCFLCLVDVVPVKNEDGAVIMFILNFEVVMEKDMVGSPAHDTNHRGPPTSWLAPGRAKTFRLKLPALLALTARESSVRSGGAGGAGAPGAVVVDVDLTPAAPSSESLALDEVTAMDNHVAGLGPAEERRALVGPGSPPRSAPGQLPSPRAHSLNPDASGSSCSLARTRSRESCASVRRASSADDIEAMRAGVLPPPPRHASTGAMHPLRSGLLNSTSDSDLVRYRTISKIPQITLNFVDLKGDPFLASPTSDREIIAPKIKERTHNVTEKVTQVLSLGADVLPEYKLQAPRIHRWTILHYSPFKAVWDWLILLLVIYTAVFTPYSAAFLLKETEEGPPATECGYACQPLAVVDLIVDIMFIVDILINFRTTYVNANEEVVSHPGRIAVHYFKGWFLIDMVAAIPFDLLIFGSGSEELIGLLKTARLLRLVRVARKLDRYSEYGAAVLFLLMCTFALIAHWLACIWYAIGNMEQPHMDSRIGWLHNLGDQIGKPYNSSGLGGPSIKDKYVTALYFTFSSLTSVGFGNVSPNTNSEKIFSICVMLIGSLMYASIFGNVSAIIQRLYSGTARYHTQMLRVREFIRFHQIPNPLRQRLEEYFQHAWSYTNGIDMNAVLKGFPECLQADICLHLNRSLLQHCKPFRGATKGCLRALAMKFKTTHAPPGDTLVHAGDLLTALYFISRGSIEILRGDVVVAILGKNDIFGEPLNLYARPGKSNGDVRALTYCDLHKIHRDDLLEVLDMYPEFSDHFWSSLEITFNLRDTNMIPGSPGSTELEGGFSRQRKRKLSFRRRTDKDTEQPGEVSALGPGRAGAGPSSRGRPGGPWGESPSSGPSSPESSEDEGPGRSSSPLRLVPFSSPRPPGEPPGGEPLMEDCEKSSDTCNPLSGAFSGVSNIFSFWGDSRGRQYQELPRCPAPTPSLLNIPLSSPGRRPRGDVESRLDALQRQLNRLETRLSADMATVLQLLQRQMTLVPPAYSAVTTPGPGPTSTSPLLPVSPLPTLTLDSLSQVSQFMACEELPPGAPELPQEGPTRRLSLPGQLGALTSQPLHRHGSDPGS
Description: Inhibition of human ERG by Q-patch assay

[28] = Terminal half life in Sprague-Dawley rat at 1 mg/kg, iv by LC-MS/MS analysis; assay type: ADME, organism-based; details: in vivo, read-out: beta t1/2 (converted)
[29] = Volume of distribution at steady state in Sprague-Dawley rat at 1 mg/kg, iv by LC-MS/MS analysis; assay type: ADME, organism-based; details: in vivo, read-out: Vdss
[30] = Terminal half life in cynomolgus monkey at 0.3 mg/kg, iv by LC-MS/MS analysis; assay type: ADME, organism-based, Macaca fascicularis; details: in vivo, read-out: beta t1/2 (converted)
[31] = Clearance in cynomolgus monkey at 0.3 mg/kg, iv by LC-MS/MS analysis; assay type: ADME, organism-based, Macaca fascicularis; details: in vivo
[32] = Volume of distribution at steady state in beagle dog at 0.2 mg/kg, iv by LC-MS/MS analysis; assay type: ADME, organism-based, Canis lupus familiaris; details: in vivo, read-out: Vdss
[33] = Cmax/dose in C57BL/6 mouse at 5 mg/kg, po by LC-MS/MS analysis; assay type: ADME, organism-based; details: in vivo
[34] = AUC/dose in C57BL/6 mouse at 1 mg/kg, iv by LC-MS/MS analysis; assay type: ADME, organism-based; details: in vivo
[35] = physchem; details: aqueous, pH 6.8
Description: Aqueous solubility of the compound at pH 6.8

[36] = test system: KYSE-520 cell line; test: Antiproliferative activity against human KYSE-520 cells; assay type: functional, cell-based
[37] = Oral bioavailability in C57BL/6 mouse at 5 mg/kg by LC-MS/MS analysis; assay type: ADME, organism-based; details: in vivo
[38] = Terminal half life in beagle dog at 0.2 mg/kg, iv by LC-MS/MS analysis; assay type: ADME, organism-based, Canis lupus familiaris; details: in vivo, read-out: beta t1/2 (converted)
[39] = Terminal half life in C57BL/6 mouse at 1 mg/kg, iv by LC-MS/MS analysis; assay type: ADME, organism-based; details: in vivo, read-out: beta t1/2 (converted)
[40] = physchem; details: octanol/water; remark: listed apart in the source
Description: Lipophilicity, logP of the compound

[41] = Tmax in cynomolgus monkey at 1 mg/kg, po by LC-MS/MS analysis; assay type: ADME, organism-based, Macaca fascicularis; details: in vivo
[42] = Oral bioavailability in beagle dog at 1 mg/kg by LC-MS/MS analysis; assay type: ADME, organism-based, Canis lupus familiaris; details: in vivo
[43] = AUC/dose in beagle dog at 0.2 mg/kg, iv by LC-MS/MS analysis; assay type: ADME, organism-based, Canis lupus familiaris; details: in vivo
[44] = Clearance in Sprague-Dawley rat at 1 mg/kg, iv by LC-MS/MS analysis; assay type: ADME, organism-based; details: in vivo
[45] = AUC/dose in Sprague-Dawley rat at 1 mg/kg, iv by LC-MS/MS analysis; assay type: ADME, organism-based; details: in vivo
[46] = molecular target: T1, Tyrosine-protein phosphatase non-receptor type 11 (Homo sapiens, UniProt Q06124)
T1 sequence (Q06124 whole entry): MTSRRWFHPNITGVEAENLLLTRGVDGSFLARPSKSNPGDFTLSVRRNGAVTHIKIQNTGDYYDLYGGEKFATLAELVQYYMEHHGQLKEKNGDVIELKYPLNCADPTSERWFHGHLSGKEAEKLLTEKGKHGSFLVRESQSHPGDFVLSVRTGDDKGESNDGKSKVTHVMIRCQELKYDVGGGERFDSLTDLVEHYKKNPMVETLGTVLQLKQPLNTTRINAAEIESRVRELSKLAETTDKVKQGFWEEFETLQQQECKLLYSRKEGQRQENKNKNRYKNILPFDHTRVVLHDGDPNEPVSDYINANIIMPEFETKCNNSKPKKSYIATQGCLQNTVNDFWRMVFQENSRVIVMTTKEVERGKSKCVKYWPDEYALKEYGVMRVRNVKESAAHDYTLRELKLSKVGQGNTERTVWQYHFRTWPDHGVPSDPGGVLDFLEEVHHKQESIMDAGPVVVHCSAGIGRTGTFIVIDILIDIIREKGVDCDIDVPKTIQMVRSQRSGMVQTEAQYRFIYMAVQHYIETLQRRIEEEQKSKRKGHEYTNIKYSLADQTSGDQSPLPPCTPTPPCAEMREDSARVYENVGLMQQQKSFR
Description: Allosteric inhibition of human SHP2 in human KYSE-520 cells assessed as reduction in ERK1/2 phosphorylation by fluorescence based assay

[47] = molecular target: T1, Tyrosine-protein phosphatase non-receptor type 11; test: Allosteric inhibition of 6x-histidine tagged human SHP2 (Met1-L525 residues) expressed in Escherichia coli BL21 Star (DE3) using IRS1_pY1172(dPEG8)[…] incubated for 30 mins by fluorescence based DIFMUP assay
[48] = test system: MIA PaCa-2; test: cells; details: Homo sapiens
Description: Antiproliferative activity against human MIA PaCa-2 cells

[49] = molecular target: T2, Tyrosine-protein phosphatase non-receptor type 11 (Homo sapiens) (UniProt Q06124); details: filed as negative allosteric modulator
T2 sequence (whole entry): T1 sequence (Q06124 whole entry)

[50] = test system: NCI-H358; test: Antiproliferative activity against human NCI-H358 cells; assay type: functional, cell-based

C[C@@H]1OCC2(CCN(c3cnc(Sc4ccnc(N)c4Cl)c(N)n3)CC2)[C@@H]1N [BATOPROTAFIB] showed a Cmax/dose [1] of 1207 nM, a Cmax/dose [2] of 286 nM and a clearance [3] of 4 mL/min/kg. For the same molecule, the fraction unbound [4] was 0.19, the fraction unbound [5] was 0.24 and the “inhibition (INH)” value [6] was “Not Active”. The bioavailability [7] was 60%, the Tmax [8] was 0.8 h and the AUC/dose [9] was 6438 nM·h. The “inhibition (INH)” value [10] was “Not Active”, the AUC/dose [11] was 15854 nM·h and the AUC/dose [12] was 1190 nM·h. The IC50 [13] was 666000 nM, the “inhibition (INH)” value [14] was “Not Active” and the AUC/dose [15] was 3848 nM·h. The logD [16] was 0.6, the fraction unbound [17] was 0.39 and the Activity [18] was “Non-Toxic”. The AUC/dose [19] was 2483 nM·h, the Cmax/dose [20] was 657 nM and the Vd [21] was 4 L/kg. It also gave a Tmax [22] of 2 h, a bioavailability [23] of 100% and a fraction unbound [24] of 0.36. The Vd [25] was 3 L/kg, the Tmax [26] was 1 h and the IC50 [27] was over 30000 nM. For the same molecule, the half-life [28] was 8 h, the Vd [29] was 7 L/kg and the half-life [30] was 9 h. The clearance [31] was 6 mL/min/kg, the Vd [32] was 3 L/kg and the Cmax/dose [33] was 357 nM. For the same molecule, the AUC/dose [34] was 1530 nM·h, the solubility [35] was 736 µM (≈ 311 µg/mL) and the IC50 ([36]; kyse-520) was 100 nM. It also gave a bioavailability [37] of 78%, a half-life [38] of 9 h and a half-life [39] of 2 h. It also gave a logP [40] of 1.6, a Tmax [41] of 2 h and a bioavailability [42] of over 100%. It also gave an AUC/dose [43] of 10690 nM·h, a clearance [44] of 15 mL/min/kg and an AUC/dose [45] of 2407 nM·h.

In the case of Nc1nc(N2CCC3(CCC[C@H]3N)CC2)cnc1Sc1cccnc1C(F)(F)F, the IC50 ([36]; Homo sapiens, KYSE-520) is reported as 1160 nM.

Work on CC1(CN)CCN(c2cnc(-c3cccc(Cl)c3Cl)c(N)n2)CC1 yielded an IC50 ([36]; Homo sapiens, KYSE-520) of 5540 nM.

Work on Nc1nccc(Sc2cnc(N3CCC4(CCC[C@H]4N)CC3)cn2)c1Cl yielded an IC50 ([36]; Homo sapiens, KYSE-520) of 87 nM.

In the case of CC1(N)CCN(c2cnc(Sc3ccccc3Cl)c(N)n2)CC1, the IC50 [46] is reported as 251 nM and the IC50 ([36]; kyse-520) is reported as 8140 nM.

Molecule CC1(N)CCN(c2cnc(Sc3cccnc3C(F)(F)F)c(N)n2)CC1 has a logD [16] of -0.5, an IC50 [46] of 339 nM and an IC50 [27] of 17400 nM. The solubility [35] was 85 µM (≈ 32.7 µg/mL), the IC50 [47] was 67 nM and the logP [40] was 2.

C=C(F)C(=O)N1CCN(c2nc(OC[C@@H]3CCCN3C)nc3c2CCN(c2cccc4cccc(Cl)c24)C3)C[C@@H]1CC#N [ADAGRASIB] gave an IC50 [48] of 100 nM.

Work on CC1(N)CCN(c2cnc(Cc3cccc(Cl)c3Cl)c(N)n2)CC1 yielded an IC50 [47] of 9900 nM.

For Nc1nc2ccc(Sc3cccc(Cl)c3Cl)nc2[nH]1, the ΔTm [49] was 1.5 °C.

Molecule Nc1nc(N2CCC3(CC2)COC[C@H]3N)cnc1Sc1ccnc(N)c1Cl has a logD [16] of 0.2, an IC50 [46] of 99 nM and an IC50 [27] of over 25000 nM. It also gave a solubility [35] of 787 µM (≈ 321 µg/mL), an IC50 ([36]; Homo sapiens, KYSE-520) of 665 nM and a logP [40] of 1.1.

In the case of C=CC(=O)N1CCN(c2nc(=O)n(-c3c(C)ccnc3C(C)C)c3nc(-c4c(O)cccc4F)c(F)cc23)[C@@H](C)C1 [SOTORASIB], the IC50 [50] is reported as under 30 nM.
